# Laboratory results: PMC6173406, “Design and evaluation of selective butyrylcholinesterase inhibitors based on Cinchona alkaloid scaffold” (PLoS ONE, 2018)
# Like-named read-outs stand apart in the source and are kept apart here.
# How the values were obtained:
# human AChE = molecular target: T1, human AChE (Homo sapiens, UniProt P22303); experiment: Reversible inhibition of human AChE, Ellman method with ATCh, Hunter-Downs analysis; type: biochemical; set-up: key to AChE type of inhibition: c, n and m stands for competitive, noncompetitive and mixed type of inhibition; c, n and m stands for competitive, noncompetitive and mixed type of inhibition; c, n and m stands for competitive, noncompetitive and mixed type of inhibition; conditions: for Ki: enzyme-inhibitor dissociation constant ± standard error, ATCh 0.050–0.50 mM, pH 7.4, 25 °C; for AChE Ks: enzyme-substrate (ATCh) dissociation constant derived from the inhibition kinetics with the compound; for AChE type of inhibition: symbol in brackets after Ki
# T1 construct: gift of Dr. F. Nachon (Département de Toxicologie, Armed Forces Biomedical Research Institute, France)
# T1 sequence (P22303 32-614): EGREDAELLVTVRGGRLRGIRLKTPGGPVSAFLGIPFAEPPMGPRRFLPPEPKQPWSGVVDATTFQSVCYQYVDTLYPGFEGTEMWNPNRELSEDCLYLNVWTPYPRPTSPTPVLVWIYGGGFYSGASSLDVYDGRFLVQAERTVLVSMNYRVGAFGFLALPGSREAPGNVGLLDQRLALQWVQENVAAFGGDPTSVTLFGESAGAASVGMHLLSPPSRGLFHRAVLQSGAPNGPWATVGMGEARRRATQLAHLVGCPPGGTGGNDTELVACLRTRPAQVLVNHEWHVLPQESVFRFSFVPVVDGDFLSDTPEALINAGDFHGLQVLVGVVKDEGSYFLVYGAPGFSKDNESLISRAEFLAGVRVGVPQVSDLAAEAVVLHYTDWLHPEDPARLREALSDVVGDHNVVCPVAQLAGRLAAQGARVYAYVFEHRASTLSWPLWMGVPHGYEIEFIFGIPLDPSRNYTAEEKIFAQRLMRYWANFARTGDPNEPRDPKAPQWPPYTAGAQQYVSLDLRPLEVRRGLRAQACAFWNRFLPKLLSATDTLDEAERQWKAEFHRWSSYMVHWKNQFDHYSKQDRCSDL
# Description: (§1) Purified human BChE and recombinant human AChE were kindly provided by Dr. F. Nachon (Département de Toxicologie, Armed Forces Biomedical Research Institute, France). The concentration of enzymes (BChE: 5.6 μM; AChE: 0.20 μM) was determined as described previously. The concentrated stocks of enzymes were diluted in a phosphate sodium buffer 0.1 M (pH 7.4) containing 0.1% BSA.
# (§2) Enzyme activities were measured spectrophotometrically by Ellman method at 412 nm using 0.30 mM DTNB as thiol reagent and ATCh (0.050–0.50 mM) as substrate in 0.1 M phosphate buffer, pH 7.4 [29, 30]. For the inhibition, the reaction mixture also contained cinchonidines or cinchonines (final concentrations 0.020–200 μM, depending on compound). In the case of compounds CD-(pCl) and CN-(pCl), the final content of DMSO was the same in enzyme activity measurement and in inhibition measurements, up to 0.32%. No side interactions of tested compounds with ATCh or DTNB were detected. Measurements were done at 25 °C on a Tecan Infinite M200Pro plate reader (Austria).
# (§3) The reversible inhibition of BChE and AChE by cinchonines and cinchonidines was measured by determining the decrease of enzyme activity towards ATCh (0.050–0.50 mM) in their presence. The activities of the enzymes were measured at different substrate concentrations ([S]) in the absence (v0) and presence (vi) of given cinchonines and cinchonidines concentration ([I]) selected to inhibit the enzymes for 20–80%. At least three concentrations of inhibitors for each substrate concentration were used in at least two experiments. The apparent dissociation inhibition constant (Ki,app) was calculated using the Hunter-Downs equation and the linear regression analysis: Ki,app=vi/v0−vi⋅[I]=K(I)+K(I)/K(S)⋅[S] where y-intercept determines the enzyme-inhibitor dissociation constants (K(I)), while x-intercept determines the enzyme-substrate dissociation constant, K(S). The equation was used with the assumption that the substrate, due to relatively low substrate concentrations used in experiments, binds only to the catalytic site, while inhibitor can bind to both sites catalytic and peripheral site. In other words, if the inhibitor competes with substrate for binding to the catalytic site of the enzyme, Ki,app proportionally depend on the substrate concentration. […] The curve means that the inhibitor binds not only to the catalytic or peripheral site but also to intermediates of Michaelis type of the enzyme-substrate complex.
# human BChE = molecular target: T2, human BChE (Homo sapiens, UniProt P06276); experiment: Reversible inhibition of human BChE, Ellman method with ATCh, Hunter-Downs analysis; type: biochemical; set-up: key to BChE type of inhibition: c, n and m stands for competitive, noncompetitive and mixed type of inhibition; c, n and m stands for competitive, noncompetitive and mixed type of inhibition; c, n and m stands for competitive, noncompetitive and mixed type of inhibition; conditions: for BChE Ks: enzyme-substrate (ATCh) dissociation constant derived from the inhibition kinetics with the compound; for Ki(AChE)/ Ki (BChE): inhibition selectivity, ratio of Ki constants for AChE and BChE; for BChE type of inhibition: symbol in brackets after Ki; for BChE inhibition potency compared to CD-Met: fold more potent than CD-Met
# T2 construct: gift of Dr. F. Nachon (Département de Toxicologie, Armed Forces Biomedical Research Institute, France)
# T2 sequence (P06276 29-602): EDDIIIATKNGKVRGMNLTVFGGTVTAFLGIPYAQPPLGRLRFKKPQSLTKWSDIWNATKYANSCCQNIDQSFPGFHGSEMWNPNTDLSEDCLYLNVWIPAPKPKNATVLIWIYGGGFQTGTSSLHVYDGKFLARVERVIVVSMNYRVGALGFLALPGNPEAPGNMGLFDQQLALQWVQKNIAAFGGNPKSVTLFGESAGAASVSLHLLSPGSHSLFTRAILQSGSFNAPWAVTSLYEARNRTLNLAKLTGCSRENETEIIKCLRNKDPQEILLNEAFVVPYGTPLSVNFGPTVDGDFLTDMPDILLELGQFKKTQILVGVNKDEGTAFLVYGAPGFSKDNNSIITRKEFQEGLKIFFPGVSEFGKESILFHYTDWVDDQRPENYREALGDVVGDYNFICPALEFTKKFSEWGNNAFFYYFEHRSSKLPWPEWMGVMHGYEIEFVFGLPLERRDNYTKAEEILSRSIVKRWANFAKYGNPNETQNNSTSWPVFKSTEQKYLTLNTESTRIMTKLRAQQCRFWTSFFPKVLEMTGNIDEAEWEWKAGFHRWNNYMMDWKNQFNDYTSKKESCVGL
# Description: as §1, §2, §3
# [1] = enzyme-inhibitor dissociation constant ± standard error, ATCh 0.050–0.50 mM, pH 7.4, 25 °C
# [2] = ratio of Ki of cinchonine to Ki of the pseudo-enantiomeric cinchonidine
SMILES,Ki (human AChE) [µM],AChE Ks (human AChE) [mM],AChE type of inhibition (human AChE),Ki (human BChE; [1]) [µM],BChE Ks (human BChE) [mM],Ki(AChE)/ Ki (BChE) (human BChE),BChE type of inhibition (human BChE),Ki (human BChE) [µM],BChE affinity lower compared to CD-(pBr) (human BChE; fold lower affinity than CD-(pBr)),BChE inhibition potency compared to CD-Met (human BChE),AChE affinity lower than for the highest-affinity compounds (human AChE; compared to CD-(mNO2) and CD-(mCH3)),BChE binding preference para- over meta-positioned substituent (human BChE; para compound compared to meta compound) [times],BChE stereoselectivity Ki(CN/CD) (human BChE; [2]),AChE stereoselectivity Ki(CN/CD) (human AChE; [2])
C=CC1C[N+]2(Cc3cccc(Cl)c3)CCC1CC2C(O)c1ccnc2ccccc12 (stereo not shown) [CN-(mCl)],56 ± 8,0.19 ± 0.03,c,5.4 ± 0.5,0.63 ± 0.12,10,m,–,–,–,–,–,–,–
C=CC1C[N+]2(Cc3ccccc3)CCC1CC2C(O)c1ccnc2ccccc12 (stereo not shown) [CD-Bzl],15 ± 2,0.78 ± 0.3,m,0.075 ± 0.007,0.27 ± 0.03,200,c,≤ 0.1,–,–,–,–,–,–
C=CC1C[N+]2(C)CCC1CC2C(O)c1ccnc2ccccc12 (stereo not shown) [CN-Met],42 ± 4,0.32 ± 0.05,c,29 ± 4,0.35 ± 0.07,–,c,–,approximately 730 times,–,–,–,–,–
"C=CC1C[N+]2(Cc3ccc(C)cc3)CCC1CC2C(O)c1ccnc2ccccc12 (stereo not shown) [CN-(pCH3), N-(4-methylbenzyl) cinchoninium bromide]",42 ± 2,2.0 ± 0.2,c,3.1 ± 0.3,0.33 ± 0.05,13,c,–,–,–,–,–,–,–
C=CC1C[N+]2(Cc3cccc(Br)c3)CCC1CC2C(O)c1ccnc2ccccc12 (stereo not shown) [CN-(mBr)],39 ± 2,0.73 ± 0.08,m,2.3 ± 0.2,0.48 ± 0.09,17,m,–,–,–,–,–,–,–
C=CC1C[N+]2(Cc3ccc([N+](=O)[O-])cc3)CCC1CC2C(O)c1ccnc2ccccc12 (stereo not shown) [CD-(pNO2)],36 ± 2,–,n,6 ± 0.5,0.38 ± 0.05,5.9,c,–,–,only five times higher,–,–,–,–
"C=CC1C[N+]2(Cc3cccc(Br)c3)CCC1CC2C(O)c1ccnc2ccccc12 (stereo not shown) [CD-(mBr), N-(3-bromobenzyl) cinchonidinium bromide]",20 ± 1,0.91 ± 0.08,m,0.6 ± 0.03,0.50 ± 0.05,33,m,–,–,44 times,–,–,–,–
C=CC1C[N+]2(Cc3ccc([N+](=O)[O-])cc3)CCC1CC2C(O)c1ccnc2ccccc12 (stereo not shown) [CN-(pNO2)],51 ± 2,–,n,7.6 ± 0.7,0.32 ± 0.04,6.6,c,–,–,–,–,–,–,–
C=CC1C[N+]2(Cc3cccc([N+](=O)[O-])c3)CCC1CC2C(O)c1ccnc2ccccc12 (stereo not shown) [CN-(mNO2)],8.6 ± 0.5,0.72 ± 0.10,m,4.2 ± 0.3,0.35 ± 0.04,2.1,m,–,–,–,–,–,–,–
"C=C[C@H]1CN2CC[C@H]1C[C@H]2[C@H](O)c1ccnc2ccccc12 [CD, cinchonidine, reference compound]",> 400,–,–,28 ± 4,0.25 ± 0.05,~14,c,–,–,–,about 160 times,–,–,–
"C=C[C@H]1C[N@@]2CC[C@H]1C[C@@H]2[C@@H](O)c1ccnc2ccccc12 [CN, cinchonine, reference compound]",34 ± 1,0.25 ± 0.01,c,4.9 ± 1.4,0.50 ± 0.27,–,c,–,–,–,–,–,–,–
"C=CC1C[N+]2(Cc3cccc(Cl)c3)CCC1CC2C(O)c1ccnc2ccccc12 (stereo not shown) [CD-(mCl), N-(3-chlorobenzyl) cinchonidinium chloride]",23 ± 1,0.74 ± 0.08,c,0.24 ± 0.01,0.53 ± 0.05,95,m,–,–,–,–,–,–,–
"C=CC1C[N+]2(Cc3ccc(Br)cc3)CCC1CC2C(O)c1ccnc2ccccc12 (stereo not shown) [CD-(pBr), N-para-bromobenzyl cinchonidinium bromide]",19 ± 1,2.2 ± 0.524,m,0.038 ± 0.005,0.34 ± 0.07,510,c,≤ 0.1,–,700 times,–,16,92,–
"C=CC1C[N+]2(Cc3cccc([N+](=O)[O-])c3)CCC1CC2C(O)c1ccnc2ccccc12 (stereo not shown) [CD-(mNO2), N-(3-nitrobenzyl) cinchonidinium bromide]",2.5 ± 0.2,1.0 ± 0.2,c,4.7 ± 0.4,0.62 ± 0.1,–,m,–,–,only five times higher,–,–,–,–
"C=CC1C[N+]2(Cc3cccc(C)c3)CCC1CC2C(O)c1ccnc2ccccc12 (stereo not shown) [CN-(mCH3), N-(3-methylbenzyl) cinchoninium bromide]",49 ± 2,0.66 ± 0.06,m,4.6 ± 0.4,0.53 ± 0.00,11,m,–,–,–,–,–,–,–
"C=CC1C[N+]2(Cc3cccc(C)c3)CCC1CC2C(O)c1ccnc2ccccc12 (stereo not shown) [CD-(mCH3), N-(3-methylbenzyl) cinchonidinium bromide]",3 ± 0.3,0.63 ± 0.14,m,0.077 ± 0.006,0.52 ± 0.08,39,m,≤ 0.1,–,–,–,–,–,16
C=CC1C[N+]2(Cc3ccc(Br)cc3)CCC1CC2C(O)c1ccnc2ccccc12 (stereo not shown) [CN-(pBr)],31 ± 1,2.7 ± 0.9,m,3.5 ± 0.3,0.44 ± 0.07,8.8,c,–,–,–,–,–,–,–
